Results published in PMC11242640 (International Journal of Molecular Sciences, 2024).
Like-named read-outs stand apart in the source and are kept apart here.

Columns and labels:
[1] = target: eeAChE (Electrophorus electricus, UniProt O42275); assay: eeAChE inhibition, modified Ellman's method; type: biochemical
Description: (§1) Enzymes were prepared in 20 mM Tris buffer pH 7.5 and DTNB, ATChI, and BTChI in 50 mM Tris buffer pH 8.0. Cholinesterase activity was evaluated using a 96-well microplate reader (Bio Tek 800TSUV Absorbance Reader, Agilent, Santa Clara, CA, USA) at room temperature. The microplate well was filled with 180 μL of Tris buffer (50 mM, pH 8.0), 10 μL of tested solutions (final concentrations in a range of 20–1000 μM), 10 μL of an enzyme (final concentration 0.04 U/mL), 10 μL of DTNB (final concentration 0.3 mM), and […] of ATChI/BTChI (final concentration of 0.5 mM). […] Without the use of inhibitors and enzymes, non-enzymatic hydrolysis was evaluated as a blank for the control measurement. The non-enzymatic hydrolysis reaction with an added inhibitor was used as a blank for the samples. The same volume of buffer was substituted for the enzyme. All experiments were run in triplicate. The following formula was applied to calculate the inhibition percentage: Inhibition (%) = [(AC − AT)/AC] × 100, where AC is the activity of the enzyme without a test sample and AT is the activity of the enzyme with a test sample. […] The inhibitory activity of ethanol was subtracted from all the samples. The IC50 values were obtained by a nonlinear fit of compound concentration values versus the response.

[2] = target: T1, eqBChE (Equus caballus, UniProt P81908); assay: eqBChE inhibition, modified Ellman's method; type: biochemical; settings: for inhibition of BChE: concentration not given
T1 construct: eqBChE (from equine serum); purchased Sigma–Aldrich (St. Louis, MO, USA); host or cells: equine serum
T1 sequence (P81908 whole entry): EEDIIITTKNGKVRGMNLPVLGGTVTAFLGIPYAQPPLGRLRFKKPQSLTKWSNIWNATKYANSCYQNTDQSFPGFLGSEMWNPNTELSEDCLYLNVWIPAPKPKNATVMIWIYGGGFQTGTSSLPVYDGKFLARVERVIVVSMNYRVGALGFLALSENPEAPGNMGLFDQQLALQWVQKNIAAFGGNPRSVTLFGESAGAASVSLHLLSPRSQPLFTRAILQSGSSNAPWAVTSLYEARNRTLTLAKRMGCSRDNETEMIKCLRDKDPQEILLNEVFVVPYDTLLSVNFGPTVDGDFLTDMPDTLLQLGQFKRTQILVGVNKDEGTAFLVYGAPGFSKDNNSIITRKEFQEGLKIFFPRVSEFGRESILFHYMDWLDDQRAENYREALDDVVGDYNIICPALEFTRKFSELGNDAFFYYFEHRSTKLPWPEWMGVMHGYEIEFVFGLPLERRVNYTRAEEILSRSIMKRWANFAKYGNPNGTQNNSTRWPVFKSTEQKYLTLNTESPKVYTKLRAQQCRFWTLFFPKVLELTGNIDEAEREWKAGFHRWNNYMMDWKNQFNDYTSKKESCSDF
Description: as §1

[3] = DPPH radical scavenging activity; settings: for IC50: 30 min, 25 °C, dash = IC50 value not achieved; for DPPH Inhibition (%): at maximal concentration tested
Description: DPPH is the most commonly used method to determine the antioxidant activity of different potential antioxidants. DPPH is a stable organic radical capable of accepting an electron or a hydrogen radical and changing into a non-radical form, DPPH-H [50]. The percentage of radical quenching is used as a measure of the compound antioxidant capacity.
DPPH radical scavenging activity. The stable radical 1,1-diphenyl-2-picrylhydrazyl (DPPH, Sigma–Aldrich, St. Louis, MO, USA) is the reagent used in this spectrophotometric test. The DPPH ethanolic solution (c = 8⋅10^−4 mol/L) was prepared daily and stored in a dark flask at 4 °C between the measurements. […] The reaction mixture was vortexed and incubated in the dark for 30 min at 25 °C. […] Antioxidant substances reduce the DPPH radical and decrease its absorbance at this wavelength. The DPPH inhibition, reported as a percentage, was obtained according to the equation: Inhibition (%) = [(AC(0) − AA(t))/AC(0)] × 100, where AC(0) is the absorbance of the control at t = 0 min and AA(t) is the absorbance of the antioxidant at t = 30 min. Each of the measurements was conducted three times. Inhibition percentages were expressed as mean values ± standard deviation. IC50 values were calculated using a nonlinear fit of compound concentration values versus the inhibition percentage.

[4] = CUPRAC reducing antioxidant capacity assay; settings: Trolox equivalent, pH 7.0
Description: The CUPRAC test is based on the reduction of Cu^2+ to Cu^+ due to the action of antioxidants. A reaction occurs at a pH 7.0 (close to physiological pH) in the presence of neocuproin. The reactive Ar-OH groups of polyphenols and other antioxidants are oxidized to the corresponding quinones, and Cu^2+-neocuproin is reduced to the colored complex Cu^+-neocuproin [51].
CUPRAC-reducing-antioxidant-capacity assay. […] Ammonium acetate, neocuproine, copper(II) chloride, and standard Trolox were purchased from Sigma–Aldrich (St. Louis, MO, USA). The reaction mixture contained 1 mL of each of these solutions: NH4Ac buffer (1 M, pH 7.0), Cu(II) chloride (10 mM), and neocuproine (7.5 mM, dissolved in ethanol). To make a final volume of 4.1 mL, x mL of the testing sample (or standard Trolox) and (1,1-x) mL of H2O were added to an initial mixture. The tubes were vortexed and left for 30 min at room temperature. As a blank test, the same mixture was used only without the test sample. Absorbance was recorded at 450 nm (UV-1800 UV/Vis spectrophotometer, Shimadzu, Kyoto, Japan).

[5] = read-out: eeAChE Inhibition (%)
[6] = read-out: eqBChE Inhibition (%)

eeAChE, sequence (O42275 24-633): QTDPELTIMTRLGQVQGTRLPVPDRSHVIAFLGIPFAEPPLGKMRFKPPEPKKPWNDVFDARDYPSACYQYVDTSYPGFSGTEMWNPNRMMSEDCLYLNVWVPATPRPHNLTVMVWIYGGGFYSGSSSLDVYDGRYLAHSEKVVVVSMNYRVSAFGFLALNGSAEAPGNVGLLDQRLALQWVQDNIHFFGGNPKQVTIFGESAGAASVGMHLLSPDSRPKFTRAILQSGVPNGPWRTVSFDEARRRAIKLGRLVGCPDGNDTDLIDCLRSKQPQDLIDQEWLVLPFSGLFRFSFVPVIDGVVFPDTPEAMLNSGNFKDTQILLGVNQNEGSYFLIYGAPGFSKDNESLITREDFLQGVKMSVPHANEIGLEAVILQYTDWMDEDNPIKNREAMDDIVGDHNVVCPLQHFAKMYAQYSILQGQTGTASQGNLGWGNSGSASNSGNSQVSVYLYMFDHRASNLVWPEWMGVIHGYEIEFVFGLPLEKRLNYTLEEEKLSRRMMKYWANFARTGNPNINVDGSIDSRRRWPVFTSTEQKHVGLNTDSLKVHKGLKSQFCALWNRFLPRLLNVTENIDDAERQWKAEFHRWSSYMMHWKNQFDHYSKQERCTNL

For `Oc1ccc(F)cc1/C=C/c1cccs1` [Compound 1, (E)-4-fluoro-2-(2-(thiophen-2-yl)vinyl)phenol], the IC50 ([1]; dash = IC50 value not achieved) was 178 µM, the inhibition at 500 µM [1, 5] was 80.9 ± 1.9% and the IC50 ([2]; dash = IC50 value not achieved) was 66 µM. The inhibition at 400 µM [2, 6] was 83.5 ± 0.8%, the IC50 [3] was 159 µM and the “DPPH Inhibition (%)” value ([3]; 500 μM) was 77.2 ± 0.5 (500) %. For the same compound, the CUPRAC [4] was 0.925 mol TE/mol of Compound.
`Oc1ccc(Cl)cc1/C=C/c1cccs1` [Compound 2, (E)-4-chloro-2-(2-(thiophen-2-yl)vinyl)phenol] showed an IC50 ([1]; dash = IC50 value not achieved) of 82.3 µM, an inhibition at 250 µM [1, 5] of 83 ± 2.5% and an IC50 ([2]; dash = IC50 value not achieved) of 53 µM. For the same compound, the inhibition at 200 µM [2, 6] was 80.4 ± 6.4%, the IC50 [3] was 265 µM and the “DPPH Inhibition (%)” value ([3]; 500 μM) was 65.0 ± 2.4 (500) %. The CUPRAC [4] was 0.713 mol TE/mol of Compound.
`COc1ccc(O)c(/C=C/c2cccs2)c1` [Compound 3, (E)-4-methoxy-2-(2-(thiophen-2-yl)vinyl)phenol] showed an IC50 ([1]; dash = IC50 value not achieved) of 405 µM, an inhibition at 500 µM [1, 5] of 77.8 ± 5.2% and an IC50 ([2]; dash = IC50 value not achieved) of 206 µM. The inhibition at 500 µM [2, 6] was 68.5 ± 6.2%, the IC50 [3] was 36.2 µM and the “DPPH Inhibition (%)” value ([3]; 500 μM) was 87.7 ± 0.8 (500) %. The CUPRAC [4] was 1.111 mol TE/mol of Compound.
In the case of `Cc1ccc(O)c(/C=C/c2cccs2)c1` [Compound 4, (E)-4-methyl-2-(2-(thiophen-2-yl)vinyl)phenol], the IC50 ([1]; dash = IC50 value not achieved) is reported as 225 µM, the inhibition at 250 µM [1, 5] is reported as 82.1 ± 1.1% and the IC50 ([2]; dash = IC50 value not achieved) is reported as 36.5 µM. For the same compound, the inhibition at 250 µM [2, 6] was 81.1 ± 2.2%, the IC50 [3] was 51.4 µM and the “DPPH Inhibition (%)” value ([3]; 400 μM) was 90.3 ± 0.6 (400) %. The CUPRAC [4] was 0.852 mol TE/mol of Compound.
With `Cc1ccc(/C=C/c2cc(F)ccc2O)s1` [Compound 5, (E)-4-fluoro-2-(2-(5-methylthiophen-2-yl)vinyl)phenol] the IC50 ([1]; dash = IC50 value not achieved) was 155 µM, the inhibition at 250 µM [1, 5] was 84.6 ± 2.7% and the IC50 ([2]; dash = IC50 value not achieved) was 22.9 µM. For the same compound, the inhibition at 100 µM [2, 6] was 75.3 ± 2.3%, the IC50 [3] was 130 µM and the “DPPH Inhibition (%)” value ([3]; 400 μM) was 83.0 ± 1.9 (400) %. The CUPRAC [4] was 0.204 mol TE/mol of Compound.
Work on `Cc1ccc(/C=C/c2cc(Cl)ccc2O)s1` [Compound 6, (E)-4-chloro-2-(2-(5-methylthiophen-2-yl)vinyl)phenol] yielded an IC50 [1] of 27.1 µM, an inhibition at 80 µM [1, 5] of 82.4 ± 0.8% and an IC50 [2] of 39.7 µM. For the same compound, the inhibition at 100 µM [2, 6] was 84 ± 1.8%, the IC50 [3] was over 250 µM and the “DPPH Inhibition (%)” value ([3]; 400 μM) was 42.9 ± 2.7 (400) %. For the same compound, the CUPRAC [4] was 1.407 mol TE/mol of Compound.
Compound `COc1ccc(O)c(/C=C/c2ccc(C)s2)c1` [Compound 7, (E)-4-methoxy-2-(2-(5-methylthiophen-2-yl)vinyl)phenol] has an IC50 [1] of 62.9 µM, an inhibition at 200 µM [1, 5] of 81.1 ± 1.1% and an IC50 [2] of 42.5 µM. For the same compound, the inhibition at 200 µM [2, 6] was 83.1 ± 0.8%, the IC50 [3] was 23.8 µM and the “DPPH Inhibition (%)” value ([3]; 50 μM) was 86.2 ± 2.3 (50) %. For the same compound, the CUPRAC [4] was 2.350 mol TE/mol of Compound.
For `Cc1ccc(O)c(/C=C/c2ccc(C)s2)c1` [Compound 8, (E)-4-methyl-2-(2-(5-methylthiophen-2-yl)vinyl)phenol], the IC50 [1] was 92.4 µM, the inhibition at 150 µM [1, 5] was 78.2 ± 7.7% and the IC50 [2] was 24.8 µM. For the same compound, the inhibition at 250 µM [2, 6] was 88.5 ± 5%, the IC50 [3] was 26.3 µM and the “DPPH Inhibition (%)” value ([3]; 250 μM) was 89.3 ± 1.2 (250) %. The CUPRAC [4] was 1.148 mol TE/mol of Compound.
In the case of `Cc1cnc(/C=C\c2cc(F)ccc2O)s1` [Compound 9, (Z)-4-fluoro-2-(2-(5-methylthiazol-2-yl)vinyl)phenol], the IC50 ([1]; dash = IC50 value not achieved) is reported as over 100 µM, the inhibition at 100 µM [1, 5] is reported as 17.6 ± 3.1% and the IC50 ([2]; dash = IC50 value not achieved) is reported as over 250 µM. The inhibition at 250 µM [2, 6] was 10.5 ± 4.1%, the IC50 [3] was 428 µM and the “DPPH Inhibition (%)” value ([3]; 500 μM) was 55.4 ± 0.7 (500) %. The CUPRAC [4] was 1.000 mol TE/mol of Compound.
`Cc1cnc(/C=C\c2cc(Cl)ccc2O)s1` [Compound 10, (Z)-4-chloro-2-(2-(5-methylthiazol-2-yl)vinyl)phenol] gave an IC50 ([1]; dash = IC50 value not achieved) of over 100 µM, an inhibition at 500 µM [1, 5] of 34.2 ± 2.1% and an IC50 ([2]; dash = IC50 value not achieved) of over 250 µM. The inhibition at 500 µM [2, 6] was 22.4 ± 9%, the IC50 [3] was over 250 µM and the “DPPH Inhibition (%)” value ([3]; 500 μM) was 24.0 ± 0.7 (500) %. The CUPRAC [4] was 0.630 mol TE/mol of Compound.
For `COc1ccc(/C=C/c2ncc(C)s2)c(O)c1` [Compound 11, (E)-5-methoxy-2-(2-(5-methylthiazol-2-yl)vinyl)phenol], the IC50 ([1]; dash = IC50 value not achieved) was over 100 µM, the inhibition at 500 µM [1, 5] was 29.3 ± 1.8% and the “inhibition of BChE” value [2] was under 50%. The IC50 ([2]; dash = IC50 value not achieved) was over 250 µM, the inhibition at 500 µM [2, 6] was 9.8 ± 2.7% and the IC50 [3] was 30.1 µM. The “DPPH Inhibition (%)” value ([3]; 524 μM) was 89.8 ± 0.0 (524) %.
Work on `Cc1cnc(/C=C/c2ccc(O)cc2)s1` [Compound 12, (E)-4-(2-(5-methylthiazol-2-yl)vinyl)phenol] yielded an IC50 ([1]; dash = IC50 value not achieved) of over 100 µM, an inhibition at 500 µM [1, 5] of 9.1 ± 1.4% and an IC50 ([2]; dash = IC50 value not achieved) of 189 µM. The inhibition at 500 µM [2, 6] was 68.4 ± 1.3%, the IC50 [3] was 140 µM and the “DPPH Inhibition (%)” value ([3]; 524 μM) was 74.1 ± 0.4 (524) %.
In the case of `Cc1cnc(/C=C/c2ccccc2O)s1` [Compound 13, (E)-2-(2-(5-methylthiazol-2-yl)vinyl)phenol], the IC50 ([1]; dash = IC50 value not achieved) is reported as over 100 µM, the inhibition at 500 µM [1, 5] is reported as 17.1 ± 3.9% and the IC50 ([2]; dash = IC50 value not achieved) is reported as 30.7 µM. The inhibition at 500 µM [2, 6] was 78.2 ± 3.8%, the IC50 [3] was 699 µM and the “DPPH Inhibition (%)” value ([3]; 1047 μM) was 59.8 ± 2.3 (1047) %.
In the case of `Cc1cnc(/C=C/c2cccc(O)c2)s1` [Compound 14, (E)-3-(2-(5-methylthiazol-2-yl)vinyl)phenol], the IC50 ([1]; dash = IC50 value not achieved) is reported as over 100 µM, the inhibition at 250 µM [1, 5] is reported as 10.7 ± 2.4% and the “inhibition of BChE” value [2] is reported as under 50%. It also gave an IC50 ([2]; dash = IC50 value not achieved) of over 250 µM, an inhibition at 250 µM [2, 6] of 15.6 ± 3.6% and an IC50 [3] of over 250 µM. The “DPPH Inhibition (%)” value ([3]; 250 μM) was 11.2 ± 2.7 (250) %.
